T1: Stat5, mouse (mouse, UniProt Q9JIA0 1-793)
T1 sequence: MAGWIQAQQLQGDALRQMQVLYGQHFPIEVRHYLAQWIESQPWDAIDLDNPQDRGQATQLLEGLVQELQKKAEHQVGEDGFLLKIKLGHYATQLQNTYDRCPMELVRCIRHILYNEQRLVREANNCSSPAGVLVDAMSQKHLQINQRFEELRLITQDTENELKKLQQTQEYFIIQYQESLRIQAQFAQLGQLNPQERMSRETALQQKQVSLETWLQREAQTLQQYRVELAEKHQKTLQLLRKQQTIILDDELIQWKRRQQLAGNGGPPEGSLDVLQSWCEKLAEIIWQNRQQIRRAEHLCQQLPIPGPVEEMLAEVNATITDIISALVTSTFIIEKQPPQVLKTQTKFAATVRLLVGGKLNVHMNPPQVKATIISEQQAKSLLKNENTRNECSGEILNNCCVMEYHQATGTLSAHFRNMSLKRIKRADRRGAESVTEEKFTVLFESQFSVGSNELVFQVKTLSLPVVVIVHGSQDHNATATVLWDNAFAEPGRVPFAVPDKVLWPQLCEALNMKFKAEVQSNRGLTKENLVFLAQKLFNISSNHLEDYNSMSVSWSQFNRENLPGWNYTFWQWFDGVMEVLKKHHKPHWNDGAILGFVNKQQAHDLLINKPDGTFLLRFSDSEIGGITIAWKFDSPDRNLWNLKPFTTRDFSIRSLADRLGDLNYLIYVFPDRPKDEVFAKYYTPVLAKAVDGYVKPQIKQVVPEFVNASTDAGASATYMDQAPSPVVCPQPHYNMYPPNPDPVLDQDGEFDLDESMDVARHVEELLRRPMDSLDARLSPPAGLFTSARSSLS

B1: β-catenin (Ctnnb1), mouse (other, UniProt Q02248 2-781, looked up)
chain: ATQADLMELDMAMEPDRKAAVSHWQQQSYLDSGIHSGATTTAPSLSGKGNPEEEDVDTSQVLYEWEQGFSQSFTQEQVADIDGQYAMTRAQRVRAAMFPETLDEGMQIPSTQFDAAHPTNVQRLAEPSQMLKHAVVNLINYQDDAELATRAIPELTKLLNDEDQVVVNKAAVMVHQLSKKEASRHAIMRSPQMVSAIVRTMQNTNDVETARCTAGTLHNLSHHREGLLAIFKSGGIPALVKMLGSPVDSVLFYAITTLHNLLLHQEGAKMAVRLAGGLQKMVALLNKTNVKFLAITTDCLQILAYGNQESKLIILASGGPQALVNIMRTYTYEKLLWTTSRVLKVLSVCSSNKPAIVEAGGMQALGLHLTDPSQRLVQNCLWTLRNLSDAATKQEGMEGLLGTLVQLLGSDDINVVTCAAGILSNLTCNNYKNKMMVCQVGGIEALVRTVLRAGDREDITEPAICALRHLTSRHQEAEMAQNAVRLHYGLPVVVKLLHPPSHWPLIKATVGLIRNLALCPANHAPLREQGAIPRLVQLLVRAHQDTQRRTSMGGTQQQFVEGVRMEEIVEGCTGALHILARDVHNRIVIRGLNTIPLFVQLLYSPIENIQRVAAGVLCELAQDKEAAEAIEAEGATAPLTELLHSRNEGVATYAAAVLFRMSEDKPQDYKKRLSVELTSSLFRTEPMAWNETADLGLDIGAQGEALGYRQDDPSYRSFHSGGYGQDALGMDPMMEHEMGGHHPGADYPVDGLPDLGHAQDLMDGLPPGDSNQLAWFDTDL
notes: Protein from lysates of BCR-ABL1-transformed Ctnnb1^ex3fl/+ murine B-ALL cells, immunoprecipitated with antibody 14/β-catenin; After Cre-ER^T2/4-OHT one allele lacks exon 3 (GSK3β phosphorylation sites), so the stabilised exon-3-deleted form and the wild type are both present

How the values were obtained:
[1] = tested on: B-lymphoid leukemia and lymphoma cells; assay: Cell viability assay (Cell Titer Glo 2.0) with GSK3β inhibitors; type: cell-based, human; settings: B-lymphoid vs myeloid and epithelial cells (PDX2, BV173, LAX2 vs THP1, SW620, H82); 3 days
Procedure: Forty thousand patient-derived pre-B ALL cells or twenty thousand leukemia/lymphoma cell lines or ten thousand colon/lung cancer cells were seed in a volume of 80 μl in complete growth medium on 96-well plate. GSK3β3 inhibitors were added at the indicated concentration in a total volume of 100 μl. After treatment for 3 days, Cell Titer Glo 2.0 assays (Promega) were performed according to the manufacturer's instructions. Relative viability was calculated by measuring the luminescence value and normalizing it to baseline values of untreated cells.
Data are shown as mean±s.d. unless stated. Statistical analysis was performed by GraphPad Prism 7 (GraphPad Software Inc.) using unpaired two-tailed t test or log-rank test as indicated in figure legends. Significance was considered at P<0.05. Kaplan-Meier survival analysis was used to estimate OS with GraphPad Prism 7. The investigators were not blinded to allocation during experiments and outcome assessment. Experiments were repeated to ensure reproducibility of the observations.

[2] = tested on: β-catenin and MYC protein levels in B-ALL cells; assay: Western blot of β-catenin and MYC after GSK3β inhibitor treatment; type: cell-based, human; settings: for β-catenin accumulation and MYC suppression: B-ALL (PDX2) cells, 16 hours, FIGS. 7A, 7C, 18C
Procedure: Cells were washed twice with ice-cold PBS and were lysed in CelLytic buffer (Sigma-Aldrich) supplemented with 1% protease inhibitor cocktail (Roche Diagnostics), 1% phosphatase inhibitor cocktail (EMD Millipore) and 1 mM PMSF (CST) on ice. 10-20 μg of cell lysates were separated on precast gels (Bio-Rad) and transferred on nitrocellulose membranes (Bio-Rad). After blocking for an hour in TBS-T with 2% BSA, membranes were probed with the appropriate primary antibodies listed in Table 6. Membranes were incubated with alkaline-phosphatase conjugated secondary antibodies (Invitrogen) and analyzed with Chemi Doc™ MP Imaging System (Bio-Rad). For fractionation experiment Nuclear and Cytoplasmic Extraction Reagent (Thermo Scientific) was used according to manufacturer's instructions.

[3] = cited from earlier work; for Outcome: clinical responses / Outcome: safety: Phase 1 and 2; for safety and tolerability / PK/PD profile in clinical trials: micromolar plasma concentrations (Cmax); for Outcome: MTD: i.v.
[4] = tested on: B-cell lymphoma cell lines; assay: Drug responses (AUC) to CHIR99021 across B-cell lymphoma cell lines; type: cell-based, human; settings: 84 B-cell lymphoma cell lines; 8q24+ n=31, 8q24- n=53; P=5.2E-07
Description: In some embodiments, the IC50 can be calculated by using the Broad Repurposing Library and the PRISM multiplexed cell-line viability assay. Any assay or technique known in the art can be used for the calculation of the IC50 for the purposed of the present invention. The mutation data for CTNNB1, APC, AXIN1, AXIN2 and GSK3β genes were acquired from https://cancer.sanger.ac.uk/cosmic. The data for RIC staining of β-catenin was obtained from https://www.proteinatlas.org/. The RNA-seq data and mass spectrometry data for β-catenin and IKZF1 in human cancer cell lines were obtained from depmap.org/portal/download/. Data for drug-response of solid tumor cell lines to were acquired from depmap.org/portal/download/. Hallmark Myc-Targets V1 and Hallmark Myc-Targets V2 gene sets were acquired from MSigDB. RNA-seq data was deposited to GEO with the accession number GSE196767 and ChIP-seq data was deposited to GEO with accession number GSE196745. All other data are available from the corresponding author upon reasonable request.

[5] = tested on: Human B-ALL xenograft cells (SFO5); assay: Colony formation assay of B-ALL xenograft cells; type: cell-based; settings: SFO5, lenalidomide 0.5 μM for 2 days
Procedure: For colony forming assays, 10,000 mouse BCR-ABL1 or NRAS^G12D were grown on MethoCult medium (M3231 or M3630 (with IL-7) respectively, StemCell Technologies) in 3-cm diameter dishes with an extra dish filled with water to prevent evaporation. Colony forming assays with human leukemia/lymphoma cell lines were performed by plating 10,000 cells on MethoCult medium without human cytokines (H4230). For mouse pre-B cells 50.000 cells were grown on MethoCult medium with IL-7 (M3630). For colony forming assays assessing mouse myeloid progenitors, 10,000 cells were grown on MethoCult medium with mouse SCF, IL-3, IL-6, EPO (M3434). For human cord-blood derived colonies, 1000 CD34^+ HSCs were plated on MethoCult medium with recombinant human SCF, IL-3, IL-6, EPO, G-CSF, GM-CSF (H4435). For all colony forming experiments, colonies were imaged and counted using GelCount (Oxford Optronix) and 7-14 days after plating.

[6] = molecular target: T1, Stat5, mouse; assay: co-IP with anti-β-catenin antibody and Western blot, murine B-ALL cells (FIG. 4B)
Procedure: Co-immunoprecipitation experiments were performed using Pierce Crosslink Magnetic IP/Co-IP kit according to manufacturer's instructions (Thermo Scientific).

Molecule | selective cell death / drug response [1] | β-catenin accumulation and MYC suppression [2] | Outcome: clinical responses [3] | safety and tolerability / PK/PD profile in clinical trials [3] | other results
O=C1Nc2cc(Br)ccc2/C1=C1/Nc2ccccc2/C1=N\O [6-Bromoindirubin-3′-oxime] | induced cell death at low nanomolar concentrations selectively in B-lymphoid but not myeloid and epithelial cells | induced massive accumulation of β-catenin in parallel with acute suppression of MYC | – | – | –
Cn1cc(C2=C(c3coc4ccc(F)cc34)C(=O)NC2=O)c2cc3c(cc21)OCO3 [9-ING-41, Elraglusib] | broad non-specific toxicity across all cell types tested | failure to induce β-catenin accumulation and MYC-suppression | No clinical response | demonstrated safety and tolerability at micromolar plasma concentrations | Outcome: safety [3]: Phase 1 and 2, favorable safety
N#Cc1ccc2[nH]c(O)c(-c3ccc(CN4CCOCC4)cn3)c2c1 [AZD1080] | – | – | – | demonstrated safety and tolerability at micromolar plasma concentrations | –
Cc1c[nH]c(-c2cnc(NCCNc3ccc(C#N)cn3)nc2-c2ccc(Cl)cc2Cl)n1 [CHIR99021, Laduviglusib] | – | induced massive accumulation of β-catenin in parallel with acute suppression of MYC | No clinical responses | demonstrated safety and tolerability at micromolar plasma concentrations | sensitivity of B-cell lymphoma cell lines with MYC-rearrangement (8q24+) vs without [4]: substantially less sensitive; Outcome: MTD [3]: 80 mg
O=c1sn(-c2cccc3ccccc23)c(=O)n1Cc1ccccc1 [Tideglusib] | no significant activity in any cell type | failure to induce β-catenin accumulation and MYC-suppression | No clinical responses | demonstrated safety and tolerability at micromolar plasma concentrations | Outcome: safety [3]: Phase 1 and 2, favorable safety; Outcome: MTD [3]: 120 mg
Nc1cccc2c1CN(C1CCC(=O)NC1=O)C2=O (stereo not drawn) [lenalidomide] | – | – | – | – | MYC expression under β-catenin accumulation ([2]; SFO5 cells, lenalidomide 0.5 μM with LY2090314 20 nM): relieved β-catenin-induced transcriptional repression of MYC; colony formation under β-catenin accumulation [5]: relieved β-catenin-induced transcriptional repression of MYC and suppression of colony formation
CHIR98014 | induced cell death at low nanomolar concentrations selectively in B-lymphoid but not myeloid and epithelial cells | induced massive accumulation of β-catenin in parallel with acute suppression of MYC | – | – | –
B1 | – | – | – | – | binding result [6]: no binding

— patent publication US20260240865A1, “HARNESSING IKZF:BETA-CATENIN COMPLEXES IN THE TREATMENT OF LYMPHOCYTE ASSOCIATED DISEASES OR CONDITIONS” (Yale University, priority 2022, published 2026)
